Source: US20160311795A1, “PYRIMIDINE DIAMINE DERIVATIVES AS INHIBITORS OF CYTOSOLIC HSP90” (CALASIA PHARMACEUTICALS, INC., priority 2012, published 2016)

Tests used:
U251MG cells = test: Mitochondrial integrity in cells, TMRE fluorescence; type: cell-based, human; details: 48 hours
Experimental: Additional experiments were performed to determine the effect of SBI-0640725 on mitochondrial integrity. U251MG cells were treated with tetramethylrhodamine ethyl ester (TMRE), and fluorescence was visualized using fluorescence confocal microscopy (FIG. 16 panel A), or quantitated using a fluorimeter (FIG. 16 panel B) after cells had been treated with increasing concentrations of SBI-0640725 for 48 hours. […] In experiments using isolated mitochondria, mitochondrial membrane potential was determined as a measure of mitochondrial integrity. TMRE-loaded mitochondria isolated from U251MG cells were treated with either 10 μM (left bar of the pair in FIG. 17) or 2 μM (right bar of the pair in FIG. 17) SBI-0640725 while continually monitoring changes in fluorescence intensity at 30° C.

R127 = test: Efficacy in ovarian cancer cells, ADP-GLO; type: cell-based
Experimental: (§1) The effect of SBI-0640725 on cell viability was determined by measuring cellular dehydrogenase activity (U251MG and MBA-MD-231 cells) or by measuring ADP levels (HepG2) after treating cells for 72 hours with increasing concentrations of SBI-0640725. To measure dehydrogenase activity, CCK-8 kit reagent (Dojindo) was added to the wells and incubated for 2 hours, after which absorbance was measured at 450 nm using a Synergy HT micro-titer plate reader (Biotek). To measure ADP levels, ADP-GLO reagent (Life Technologies) was added to the wells, and luminescence was measured after a 30 minute incubation using a POLARstar Omega micro-titer plate reader (BMG).
(§2) The table below summarizes efficacy of SBI-0640725 in various cancer cell lines, including U251MG, MDA-MB-231, and HepG2, using ADP-GLO assay described above. As used herein “efficacy” (EC50) is the concentration of a compound that produces half-maximal response in a cellular assay.

R182 = test: Efficacy in ovarian cancer cells, ADP-GLO; type: cell-based
Experimental: as §1, §2

U251MG = test: Cell viability / efficacy in GBM cells; type: cell-based, human
Experimental: as §1, §2

Akt1 in MBA-MD-231 cells = test: Hsp90 client protein stability, Akt1 ELISA; type: cell-based; details: MBA-MD-231, 48 hours, increasing concentrations
Experimental: In further experiments, the effect of SBI-0640725 on the stability of Hsp90 client proteins was analyzed. […] Akt1 protein levels were measured in cell lysates using ELISA.

Akt1 in LnCaP cells = test: Akt1 degradation in cell lysates, ELISA; type: cell-based; details: Homo sapiens, 48 h
Experimental: Tumor cell lines (LnCaP) were obtained from the Sanford Burnham Medical Research Institute (La Jolla, Calif.), LnCaP cells were cultured in culture medium (RPMI-glutamax, 10% FCS, 100 units/ml penicillin, and 100 μg/ml streptomycin). Cells were passaged after lifting using 0.25% trypsin/EDTA, and 3×10^5 cells were seeded in each well of six well plates (total volume 2.5 mL/well). After the cells were cultured for 24 h, increasing concentrations of Hsp90 inhibitor were added to wells in triplicate from DMSO-containing stock solutions and mixed by gently by stirring. Final DMSO concentration in all wells was 0.25%. The treated cells were then cultured for 48 h prior to lysate preparation. […] The protein concentration in the cell lysates was determined using the BCA protein assay kit used according to the manufacturer's recommendations. […] Two hundred μL of BCA Protein Assay Kit reagent was added and the mixtures were incubated at 37° C. for 30 min Protein concentrations were determined using a micro-titer plate reader (Model #Synergy HT; BioTek Inc., Winooski, Vt.).
Akt1 levels in the cell lysates were measured using kits from R&D Systems used according to the manufacturer's recommendations. […] Akt1 levels were determined using a micro-titer plate reader (Model #Synergy HT; BioTek Inc., Winooski, Vt.). […] Fluorescence intensities of the dilutions were measured to obtain a standard curve. […]

EC50 (R127) [µM]	EC50 (R182) [µM]	EC50 (U251MG; Homo sapiens, U-251, GBM, ADP-GLO) [µM]	IC50 (Akt1 in LnCaP cells) [µM]	Compound	mitochondrial integrity (retention of de-esterified TMRE) (U251MG cells)	cell viability (U251MG; 72 hours, dehydrogenase activity (CCK-8))	levels of the client protein Akt1 (Akt1 in MBA-MD-231 cells)
0.41	0.69	0.88	–	COc1c(C)cnc(CN(CCc2ccc(F)cc2)c2cc(Cl)nc(N)n2)c1C [SBI-0640725]	decrease proportionately with increasing concentrations	reduction in cell viability	progressive decrease in the levels of the client protein Akt1
–	–	–	5.4	COc1c(C)cnc(CN(CCc2ccccc2)c2cc(Cl)nc(N)n2)c1C [SBI-0639353, 6-Chloro-N4-((4-methoxy-3,5-dimethylpyridin-2-yl)methyl)-N4-phenethylpyrimidine-2,4-diamine]	–	–	–
